Source: ChEMBL document CHEMBL4052658, “BACE1 inhibitory activity and molecular docking analysis of meroterpenoids from Sargassum serratifolium” (Bioorg Med Chem, 2017)
Calls of active or inactive are those of the source. The calls are words filed in the database; no cut-off is given here.

Legend:
Beta-secretase 1 [1] = target: T1, Beta-secretase 1 (Homo sapiens, UniProt P56817); assay: Noncompetitive inhibition of recombinant human BACE1 using Rh-EVNLDAEFK-Quencher as substrate after 60 mins by Lineweaver-Burk plot analysis
T1 sequence (P56817 whole entry): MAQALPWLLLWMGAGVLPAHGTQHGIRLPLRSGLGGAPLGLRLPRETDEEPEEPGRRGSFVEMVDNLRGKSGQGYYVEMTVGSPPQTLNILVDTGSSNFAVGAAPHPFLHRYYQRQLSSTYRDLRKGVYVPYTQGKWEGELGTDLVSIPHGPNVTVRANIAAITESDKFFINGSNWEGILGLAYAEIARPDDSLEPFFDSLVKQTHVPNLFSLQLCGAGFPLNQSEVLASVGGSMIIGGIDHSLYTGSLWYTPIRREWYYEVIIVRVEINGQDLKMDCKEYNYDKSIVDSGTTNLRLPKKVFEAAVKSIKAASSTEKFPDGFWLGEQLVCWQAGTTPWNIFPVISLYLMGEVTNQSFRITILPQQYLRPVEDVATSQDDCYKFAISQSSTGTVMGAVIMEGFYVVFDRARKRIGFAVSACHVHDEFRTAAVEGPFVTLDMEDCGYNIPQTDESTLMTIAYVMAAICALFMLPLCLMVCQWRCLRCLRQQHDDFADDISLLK

Acetylcholinesterase = Acetylcholinesterase (Electrophorus electricus, UniProt O42275); assay: Inhibition of electric eel AChE using acetylthiocholine iodide as substrate incubated for 15 mins by spectrophotometric analysis
Acetylcholinesterase, sequence (O42275 whole entry): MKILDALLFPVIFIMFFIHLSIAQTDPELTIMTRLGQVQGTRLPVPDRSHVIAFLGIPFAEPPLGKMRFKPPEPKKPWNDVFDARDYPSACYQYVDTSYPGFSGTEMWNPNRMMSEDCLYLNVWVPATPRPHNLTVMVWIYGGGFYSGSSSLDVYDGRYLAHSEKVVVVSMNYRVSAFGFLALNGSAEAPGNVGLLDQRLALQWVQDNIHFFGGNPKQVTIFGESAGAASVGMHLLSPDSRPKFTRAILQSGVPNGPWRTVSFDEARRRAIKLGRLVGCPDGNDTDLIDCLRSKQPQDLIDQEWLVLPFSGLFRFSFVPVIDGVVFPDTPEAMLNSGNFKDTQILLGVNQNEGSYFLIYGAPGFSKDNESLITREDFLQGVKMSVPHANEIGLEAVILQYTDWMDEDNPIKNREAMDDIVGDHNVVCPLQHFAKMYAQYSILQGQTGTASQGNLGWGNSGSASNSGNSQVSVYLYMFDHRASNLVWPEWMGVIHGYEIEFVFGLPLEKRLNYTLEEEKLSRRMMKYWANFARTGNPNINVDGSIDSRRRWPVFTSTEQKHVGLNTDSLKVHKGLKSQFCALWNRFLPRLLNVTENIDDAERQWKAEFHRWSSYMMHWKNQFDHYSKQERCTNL

Beta-secretase 1 [2] = target: T1, Beta-secretase 1; assay: Noncompetitive inhibition of recombinant human BACE1 using Rh-EVNLDAEFK-Quencher as substrate after 60 mins by Dixon plot analysis
Cholinesterase = Cholinesterase (Equus caballus, UniProt P81908); assay: Inhibition of equine serum BChE using butyrylthiocholine chloride as substrate incubated for 15 mins by spectrophotometric analysis
Cholinesterase, sequence (P81908 whole entry): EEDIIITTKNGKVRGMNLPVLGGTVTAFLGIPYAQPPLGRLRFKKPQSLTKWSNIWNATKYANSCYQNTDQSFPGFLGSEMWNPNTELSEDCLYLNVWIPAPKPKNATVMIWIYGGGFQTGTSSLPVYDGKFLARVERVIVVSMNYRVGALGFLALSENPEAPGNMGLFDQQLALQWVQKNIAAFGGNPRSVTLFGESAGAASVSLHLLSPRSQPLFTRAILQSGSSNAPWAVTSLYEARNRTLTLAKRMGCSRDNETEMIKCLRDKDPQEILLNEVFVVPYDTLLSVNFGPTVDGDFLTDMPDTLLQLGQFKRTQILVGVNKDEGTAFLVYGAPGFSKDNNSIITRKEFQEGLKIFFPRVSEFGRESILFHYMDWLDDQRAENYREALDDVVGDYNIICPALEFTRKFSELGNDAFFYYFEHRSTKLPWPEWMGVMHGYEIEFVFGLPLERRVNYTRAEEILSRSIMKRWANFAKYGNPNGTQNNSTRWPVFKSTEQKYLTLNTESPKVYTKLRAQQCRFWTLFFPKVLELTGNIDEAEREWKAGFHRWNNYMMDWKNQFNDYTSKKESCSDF

Beta-secretase 1 [3] = target: T1, Beta-secretase 1; assay: Inhibition of recombinant human BACE1 using Rh-EVNLDAEFK-Quencher as substrate after 60 mins by FRET assay
Beta-secretase 1 [4] = target: T1, Beta-secretase 1; assay: Mixed type inhibition of recombinant human BACE1 using Rh-EVNLDAEFK-Quencher as substrate after 60 mins by Dixon plot analysis

| Compound | inhibition (Beta-secretase 1 [1]) | IC50 (Acetylcholinesterase) [µM] | Ki (Beta-secretase 1 [2]) [µM] | IC50 (Cholinesterase) [µM] | IC50 (Beta-secretase 1 [3]) [µM] | Ki (Beta-secretase 1 [4]) [µM] |
| --- | --- | --- | --- | --- | --- | --- |
| CC(C)=CCC/C(=C/CC/C(C)=C/CCC1(C)C=Cc2cc(O)cc(C)c2O1)C(=O)O (stereo not drawn) | Active | 97.3 | 2.9 | 9.4 | 7 |  |
| CC(C)=CCC/C(=C/CC/C(C)=C/CC/C(C)=C/CC1=CC(=O)C=C(C)C1=O)C(=O)O |  | 69.3 |  | 10.5 |  | 4 |
| COc1ccc2cc3[n+](cc2c1OC)CCc1cc2c(cc1-3)OCO2 [BERBERINE] |  | 1.6 |  |  |  |  |
| CC(C)=CCC/C(=C/CC/C(C)=C/CC/C(C)=C/Cc1cc(O)cc(C)c1O)C(=O)O [SARGAHYDROQUINOIC ACID] |  | 124 |  | 15.2 | 4.4 | 1.6 |
